Results on 22 molecules are retold here after ChEMBL document CHEMBL4680322, “Mono- and bis-pyrazolophthalazines: Design, synthesis, cytotoxic activity, DNA/HSA binding and molecular docking studies” (Bioorg Med Chem, 2021).

SMILES strings stand for the structures. Activity calls are given as the source filed them. No cut-off for these calls is given here.

Data set [1] concerns A549. The data set can be described thus: Cytotoxicity against human A549 cells assessed as reduction in cell viability measured after 24 hrs by MTT assay. The format is functional, cell-based. Conditions: A549, 24 h.
Data set [2] relates to HepG2. The data set can be described thus: Cytotoxicity against human HepG2 cells assessed as reduction in cell viability measured after 24 hrs by MTT assay. Format: functional, cell-based. As to conditions: HepG2, 24 h. (Formazan colour is commonly taken as a measure of viable cells.)
Data set [3] concerns MCF7. The data set can be described thus: Cytotoxicity against human MCF7 cells assessed as reduction in cell viability measured after 24 hrs by MTT assay. The format is functional, cell-based. As to conditions: MCF7, 24 h.
The test system of data set [4] is HT-29. The data set can be described thus: Cytotoxicity against human HT-29 cells assessed as reduction in cell viability measured after 24 hrs by MTT assay. Format: functional, cell-based. Conditions: HT-29, 24 h.
For data set [5], the system named is MCF-10A. The data set is described as follows: Cytotoxicity against human MCF-10A cells assessed as reduction in cell viability. The format is cell-based.
The subject of data set [6] is MRC5. The data set is described as follows: Cytotoxicity against human MRC5 cells assessed as reduction in cell viability. The format is cell-based.
The target of data set [7] is T1, Albumin (Homo sapiens, UniProt P02768). The data set is described as follows: Binding affinity to human serum albumin assessed as alpha-helix perturbation with reduction in absorption intensity at 214 nm causing blue shift at 2 to 187 uM by UV-Visible spectroscopy. Format: ADME, cell-free. As to conditions: dose 2-187 µM.
The target of data set [8] is T1, Albumin. The data set can be described thus: Binding affinity to human serum albumin assessed as conformational changes at 2 to 187 uM by UV-Visible spectroscopy. Format: ADME, cell-free. Conditions: dose 2-187 µM.
Data set [9] has as its target T1, Albumin. The data set can be described thus: Binding affinity to human serum albumin assessed as microenvironmental changes at 2 to 187 uM by UV-Visible spectroscopy. Format: ADME, cell-free. Conditions: dose 2-187 µM.
Data set [10] deals with T1, Albumin. The data set is described as follows: Binding affinity to human serum albumin assessed as apparent binding constant for protein-compound complex by B-H plot analysis. Format: ADME, cell-free.
Data set [11] has as its target T1, Albumin. The data set can be described thus: Binding affinity to human serum albumin assessed as compound-protein complex stoichiometry ratio of 1:1 by B-H plot analysis. The format is ADME, cell-free.
Data set [12] addresses T1, Albumin. The data set is described as follows: Binding affinity to human serum albumin assessed as induction of secondary structural changes by measuring decrease in alpha content at 187 uM by circular dichroism spectroscopy relative to control. Format: cell-free. More on the design: scale not given: the % may be the effect or the level left. (In general: CD spectra are sensitive to the conformation of chiral molecules.)

Data set [13] deals with T1, Albumin. The data set is described as follows: Binding affinity to human serum albumin assessed as zeta potential by measuring surface charge (reference value: -16.15 mV). The format is ADME, cell-free.
The target of data set [14] is T1, Albumin. The data set is described as follows: Binding affinity to human serum albumin assessed as change in hydrodynamic radius by dynamic light scattering analysis (reference value: 3.56 nanometer). The format is ADME, cell-free.
Data set [15] concerns Calf thymus DNA. The data set can be described thus: Binding affinity to calf thymus DNA assessed as DNA-compound complex formation causing decrease in band intensity at 3 to 187 uM and pH 7.4 by UV-Visible spectroscopy. Conditions: Bos taurus, dose 3-187 µM.
Data set [16] deals with Calf thymus DNA. The data set is described as follows: Binding affinity to calf thymus DNA assessed as DNA-compound complex formation causing decrease in lambda-max shift at 3 to 187 uM and pH 7.4 by UV-Visible spectroscopy. Conditions: Bos taurus, dose 3-187 µM.
For data set [17], the system named is Calf thymus DNA. The data set is described as follows: Binding affinity to calf thymus DNA assessed as compound-DNA complex stoichiometry ratio of 1:1 by B-H plot analysis. As to conditions: Bos taurus.
The subject of data set [18] is Calf thymus DNA. The data set is described as follows: Binding affinity to calf thymus DNA assessed as apparent binding constant for DNA-compound complex by B-H plot analysis. As to conditions: Bos taurus.
The test system of data set [19] is Calf thymus DNA. The data set can be described thus: Binding affinity to calf thymus DNA assessed as decrease in positive ellipticity by retaining basic CD spectrum shape at 187 uM by circular dichroism spectroscopy. Conditions: Bos taurus.
Data set [20] relates to Calf thymus DNA. The data set can be described thus: Binding affinity to calf thymus DNA assessed as zeta potential (reference value: -24.16 mV). The format is tissue-based. As to conditions: Bos taurus.
Data set [21] relates to A549. The data set can be described thus: Potency index, ratio of doxorubicin IC50 to test compound IC50 for human A549 cells assessed as reduction in cell viability measured after 24 hrs by MTT assay. Format: functional.
Data set [22] has as its system MCF7. The data set can be described thus: Potency index, ratio of doxorubicin IC50 to test compound IC50 for human MCF7 cells assessed as reduction in cell viability measured after 24 hrs by MTT assay. Format: functional.

T1 sequence (P02768 whole entry): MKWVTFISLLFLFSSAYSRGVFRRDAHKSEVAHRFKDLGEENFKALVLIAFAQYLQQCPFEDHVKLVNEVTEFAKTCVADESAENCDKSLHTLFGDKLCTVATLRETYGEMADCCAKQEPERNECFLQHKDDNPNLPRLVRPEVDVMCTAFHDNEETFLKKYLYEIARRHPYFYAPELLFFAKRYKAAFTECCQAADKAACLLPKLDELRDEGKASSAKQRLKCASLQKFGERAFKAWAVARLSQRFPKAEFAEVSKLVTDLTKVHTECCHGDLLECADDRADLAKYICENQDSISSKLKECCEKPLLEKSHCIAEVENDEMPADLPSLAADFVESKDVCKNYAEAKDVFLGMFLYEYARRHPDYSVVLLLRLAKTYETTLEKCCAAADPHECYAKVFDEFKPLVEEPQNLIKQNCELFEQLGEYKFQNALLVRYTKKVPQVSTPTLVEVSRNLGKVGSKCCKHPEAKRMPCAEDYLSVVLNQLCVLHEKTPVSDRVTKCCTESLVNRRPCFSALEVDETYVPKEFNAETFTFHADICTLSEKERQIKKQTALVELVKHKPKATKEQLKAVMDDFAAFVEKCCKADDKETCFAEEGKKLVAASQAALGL

In the case of `COc1cccc(C2C(C#N)=C(N)n3c(=O)c4ccccc4c(=O)n32)c1` (centres undefined), the IC50 (in general, the concentration that gives 50% inhibition) turned out to be 38.3 µM in data set [1], 178 µM in data set [2], 23.2 µM in data set [3] and 107 µM in data set [4].
The corresponding values for `N#CC1=C(N)n2c(=O)c3ccccc3c(=O)n2C1c1cccc(Cl)c1` (centres undefined) are 11.6 µM, 28.2 µM, 7.84 µM and 69.3 µM.
The corresponding values for `N#CC1=C(N)n2c(=O)c3ccccc3c(=O)n2C1c1ccc(O)c([N+](=O)[O-])c1` (centres undefined) are 47.5 µM, 19.5 µM, 77.4 µM and 124 µM.
Turning to `N#CC1=C(N)n2c(=O)c3ccccc3c(=O)n2C1c1ccccc1OCCCOc1ccccc1C1C(C#N)=C(N)n2c(=O)c3ccccc3c(=O)n21` (centres undefined), the IC50 was determined as 104 µM in data set [1], 104 µM in [2], 35.2 µM in [3] and 44.6 µM in data set [4].
In the case of `N#CC1=C(N)n2c(=O)c3ccccc3c(=O)n2C1c1cccc([N+](=O)[O-])c1` (centres undefined), the IC50 stood at 18.3 µM in [1], 12.6 µM in [2], 39.9 µM in data set [3] and 41.1 µM in [4].
In the same order, the values of `N#CC1=C(N)n2c(=O)c3ccccc3c(=O)n2C1c1ccc(OCCCOc2ccc(C3C(C#N)=C(N)n4c(=O)c5ccccc5c(=O)n43)cc2)cc1` (centres undefined) are 2.47 µM, 36.2 µM, 0.66 µM and 3.1 µM.
The corresponding values for `COc1ccc(C2C(C#N)=C(N)n3c(=O)c4ccccc4c(=O)n32)cc1OC` (centres undefined) are 24.7 µM, 73.5 µM, 5.1 µM and 36.4 µM.
The corresponding values for `N#CC1=C(N)n2c(=O)c3ccccc3c(=O)n2C1c1cccc(C2C(C#N)=C(N)n3c(=O)c4ccccc4c(=O)n32)c1` (centres undefined) are 18.2 µM, 50.8 µM, 8.66 µM and 186 µM.
In the case of `N#CC1=C(N)n2c(=O)c3ccccc3c(=O)n2C1c1ccc(OCCOc2ccc(C3C(C#N)=C(N)n4c(=O)c5ccccc5c(=O)n43)cc2)cc1` (centres undefined), the IC50 in data set [1] was found to be 183 µM; in data set [2] it was 249 µM; in [3], 91.3 µM; in data set [4] it was 268 µM.
In the case of `N#CC1=C(N)n2c(=O)c3ccccc3c(=O)n2C1c1ccccc1Cl` (centres undefined), the IC50 in data set [1] is 1.25 µM; in [2] it was 27.9 µM; in data set [3] it was 7.32 µM; in [4] it was 7.14 µM; in data set [5] it was 213 µM; in [6], 388 µM. Further, the Activity result is “Active” in [7]; “Active” in data set [8]; “Active” in [9]; “Active” in [11]; 47.71% in data set [12]; -13.25 mV in [13]. Besides, the Activity in data set [14] was 5.13 nm; in data set [19], -18.1 mV. Also, the values for the Kapp in [10] and in [18] were 5.2 10^3/M and 4.2 10^4/M, respectively. The result in [15], in [16], in data set [17] and in data set [20] was Active.
For the molecule `N#CC1=C(N)n2c(=O)c3ccccc3c(=O)n2C1c1ccc(Cl)cc1Cl` (centres undefined), the IC50 in [1] was determined as 64 µM; in [2], 11.4 µM; in data set [3], 10.4 µM; in [4], 1.56 µM.
In the same order, the values of `N#CC1=C(N)n2c(=O)c3ccccc3c(=O)n2C1c1ccc([N+](=O)[O-])cc1` (centres undefined) are 212 µM, 170 µM, 60.8 µM and 79.1 µM.
In the same order, the values of `N#CC1=C(N)n2c(=O)c3ccccc3c(=O)n2C1c1ccc(C2C(C#N)=C(N)n3c(=O)c4ccccc4c(=O)n32)cc1` (centres undefined) are 17.6 µM, 84.6 µM, 11.4 µM and 90.9 µM.
In the same order, the values of `N#CC1=C(N)n2c(=O)c3ccccc3c(=O)n2C1c1ccccc1OCCCCOc1ccccc1C1C(C#N)=C(N)n2c(=O)c3ccccc3c(=O)n21` (centres undefined) are 111 µM, 244 µM, 44.6 µM and 82.4 µM.
Regarding `COc1cccc2c1C(=O)c1c(O)c3c(c(O)c1C2=O)C[C@@](O)(C(=O)CO)C[C@@H]3O[C@H]1C[C@H](N)[C@H](O)[C@H](C)O1` [DOXORUBICIN], the IC50 in [1] stood at 2.31 µM; in data set [2], 2.32 µM; in data set [3], 1.77 µM; in data set [4], 1.13 µM; in data set [5], 3.52 µM; in data set [6], 3.88 µM.
Turning to `N#CC1=C(N)n2c(=O)c3ccccc3c(=O)n2C1c1ccc(OCCCCOc2ccc(C3C(C#N)=C(N)n4c(=O)c5ccccc5c(=O)n43)cc2)cc1` (centres undefined), the IC50 in data set [1] is 264 µM; in data set [2], 426 µM; in data set [3], 155 µM; in data set [4], 419 µM.
As for `COc1ccc(C2C(C#N)=C(N)n3c(=O)c4ccccc4c(=O)n32)cc1` (centres undefined), the IC50 came to 39.8 µM in data set [1], 93.8 µM in data set [2], 23.9 µM in data set [3] and 66.5 µM in [4].
`COc1ccccc1C1C(C#N)=C(N)n2c(=O)c3ccccc3c(=O)n21` (centres undefined): the IC50 in data set [1] is 627 µM; in [2] it was 697 µM; in data set [3] it was 455 µM; in data set [4] it was 79.7 µM.
In the same order, the values of `N#CC1=C(N)n2c(=O)c3ccccc3c(=O)n2C1c1ccc(Cl)cc1` (centres undefined) are 40.6 µM, 16.8 µM, 5.53 µM and 25.4 µM.
With `N#CC1=C(N)n2c(=O)c3ccccc3c(=O)n2C1c1ccc(Br)cc1` (centres undefined), the IC50 in [1] was 81.6 µM; in data set [2], 40.5 µM; in [3], 5.97 µM; in data set [4], 31 µM.
For `N#CC1=C(N)n2c(=O)c3ccccc3c(=O)n2C1c1ccccc1OCCOc1ccccc1C1C(C#N)=C(N)n2c(=O)c3ccccc3c(=O)n21` (centres undefined), the IC50 was determined as 1.35 µM in data set [1]; 11.6 µM in [2]; 0.49 µM in [3]; 3.71 µM in [4]; 61.2 µM in data set [5]; 71.2 µM in data set [6]. Moreover, the Activity result was “Active” in [7]; “Active” in data set [8]; “Active” in data set [9]; “Active” in data set [11]; 48.08% in data set [12]; -14.41 mV in data set [13]. Besides, the figures for the Activity in [14] and in data set [19] were 5.28 nm and -17.8 mV, respectively. In addition, the figures for the Kapp in [10] and in data set [18] were 3.8 10^4/M and 5 10^4/M, respectively. Further, the outcome in [15], in [16], in data set [17] and in data set [20] was Active. The “Ratio IC50” value in [21] and in [22] was 2 throughout.
Regarding `N#CC1=C(N)n2c(=O)c3ccccc3c(=O)n2C1c1ccccc1` (centres undefined), the IC50 in data set [1] came to 39.7 µM; in data set [2] it was 81.7 µM; in [3] it was 41.6 µM; in [4], 132 µM.
